Data as given in publication PMC4844176 (Xenobiotica; the fate of foreign compounds in biological …, 2015).

Columns and labels:
UGT1A8 = biological target: T1, UGT1A8 (Homo sapiens, UniProt Q9HAW9)
T1 sequence (Q9HAW9 26-530): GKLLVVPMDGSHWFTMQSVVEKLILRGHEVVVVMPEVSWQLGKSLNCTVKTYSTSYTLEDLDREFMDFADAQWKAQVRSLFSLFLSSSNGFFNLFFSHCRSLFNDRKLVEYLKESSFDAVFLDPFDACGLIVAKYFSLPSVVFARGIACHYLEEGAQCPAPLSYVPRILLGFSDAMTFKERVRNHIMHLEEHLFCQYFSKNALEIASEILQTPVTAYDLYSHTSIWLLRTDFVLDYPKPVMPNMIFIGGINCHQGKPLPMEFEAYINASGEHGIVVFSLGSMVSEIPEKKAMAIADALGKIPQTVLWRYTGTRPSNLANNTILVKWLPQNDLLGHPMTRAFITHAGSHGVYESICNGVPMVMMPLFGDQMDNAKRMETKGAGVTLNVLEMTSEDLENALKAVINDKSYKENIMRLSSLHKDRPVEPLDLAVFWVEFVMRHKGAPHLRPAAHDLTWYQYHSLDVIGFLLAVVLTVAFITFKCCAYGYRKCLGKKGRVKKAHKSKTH

UGT2B7 = biological target: T2, UGT2B7 (Homo sapiens, UniProt P16662); experiment: Ki determination of aprepitant on 4-MU-G, M-6-G and AZT-G formation in UGT2B7
T2 sequence (P16662 24-529): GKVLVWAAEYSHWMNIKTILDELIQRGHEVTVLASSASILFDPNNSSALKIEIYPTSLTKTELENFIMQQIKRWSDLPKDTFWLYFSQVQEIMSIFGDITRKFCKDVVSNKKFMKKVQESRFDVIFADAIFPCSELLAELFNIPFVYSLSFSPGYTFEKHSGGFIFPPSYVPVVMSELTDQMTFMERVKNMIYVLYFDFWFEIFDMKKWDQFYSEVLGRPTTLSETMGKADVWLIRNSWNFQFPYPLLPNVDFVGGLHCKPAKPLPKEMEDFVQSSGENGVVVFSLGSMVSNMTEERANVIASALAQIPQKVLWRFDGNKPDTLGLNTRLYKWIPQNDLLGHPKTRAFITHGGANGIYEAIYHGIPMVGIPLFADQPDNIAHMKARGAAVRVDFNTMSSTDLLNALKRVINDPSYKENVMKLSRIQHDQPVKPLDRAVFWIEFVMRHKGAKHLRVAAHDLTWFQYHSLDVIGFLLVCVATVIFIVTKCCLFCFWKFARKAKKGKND

UGT2B4 = biological target: T3, UGT2B4 (Homo sapiens, UniProt P06133); experiment: Screening for aprepitant glucuronidation, UGT2B4 Supersomes; assay type: in vitro ADME; details: UGT2B4, 5 and 250 µM aprepitant
T3 sequence (P06133 24-528): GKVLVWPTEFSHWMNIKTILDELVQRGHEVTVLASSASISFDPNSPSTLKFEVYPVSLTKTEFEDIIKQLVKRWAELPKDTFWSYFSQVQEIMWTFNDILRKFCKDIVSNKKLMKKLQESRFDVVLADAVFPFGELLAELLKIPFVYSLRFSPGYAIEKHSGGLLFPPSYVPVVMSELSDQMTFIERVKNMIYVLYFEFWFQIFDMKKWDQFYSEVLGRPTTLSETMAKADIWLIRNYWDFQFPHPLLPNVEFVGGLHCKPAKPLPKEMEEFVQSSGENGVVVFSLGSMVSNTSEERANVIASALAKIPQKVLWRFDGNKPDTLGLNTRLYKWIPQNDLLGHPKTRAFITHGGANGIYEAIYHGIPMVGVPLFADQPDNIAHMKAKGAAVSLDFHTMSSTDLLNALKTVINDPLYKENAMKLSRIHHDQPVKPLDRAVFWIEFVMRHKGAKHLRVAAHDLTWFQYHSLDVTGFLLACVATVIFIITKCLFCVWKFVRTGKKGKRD

UGT1A7 = biological target: T4, UGT1A7 (Homo sapiens, UniProt Q9HAW7); experiment: Inhibition by aprepitant of UGT1A7; assay type: in vitro ADME; details: UGT1A7 enzyme, pH 7.5, probe 4-MU
T4 sequence (Q9HAW7 26-530): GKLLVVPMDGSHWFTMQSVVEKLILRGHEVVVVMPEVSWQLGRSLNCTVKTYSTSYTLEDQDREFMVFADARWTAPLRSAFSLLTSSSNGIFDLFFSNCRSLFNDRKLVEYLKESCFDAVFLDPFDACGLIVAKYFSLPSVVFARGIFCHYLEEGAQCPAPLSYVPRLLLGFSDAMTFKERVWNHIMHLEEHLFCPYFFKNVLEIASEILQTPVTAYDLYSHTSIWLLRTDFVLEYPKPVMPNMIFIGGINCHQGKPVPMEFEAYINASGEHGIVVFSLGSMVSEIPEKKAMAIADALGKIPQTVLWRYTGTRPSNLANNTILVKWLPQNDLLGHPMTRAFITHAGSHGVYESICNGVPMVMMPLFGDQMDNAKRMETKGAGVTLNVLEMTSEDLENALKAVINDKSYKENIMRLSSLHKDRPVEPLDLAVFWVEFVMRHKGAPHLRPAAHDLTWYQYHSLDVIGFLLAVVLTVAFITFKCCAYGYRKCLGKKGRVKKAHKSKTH

UGT1A6 = biological target: T5, UGT1A6 (Homo sapiens, UniProt P19224); experiment: Screening for aprepitant glucuronidation, UGT1A6 Supersomes; assay type: in vitro ADME; details: UGT1A6, 5 and 250 µM aprepitant
T5 sequence (P19224 27-532): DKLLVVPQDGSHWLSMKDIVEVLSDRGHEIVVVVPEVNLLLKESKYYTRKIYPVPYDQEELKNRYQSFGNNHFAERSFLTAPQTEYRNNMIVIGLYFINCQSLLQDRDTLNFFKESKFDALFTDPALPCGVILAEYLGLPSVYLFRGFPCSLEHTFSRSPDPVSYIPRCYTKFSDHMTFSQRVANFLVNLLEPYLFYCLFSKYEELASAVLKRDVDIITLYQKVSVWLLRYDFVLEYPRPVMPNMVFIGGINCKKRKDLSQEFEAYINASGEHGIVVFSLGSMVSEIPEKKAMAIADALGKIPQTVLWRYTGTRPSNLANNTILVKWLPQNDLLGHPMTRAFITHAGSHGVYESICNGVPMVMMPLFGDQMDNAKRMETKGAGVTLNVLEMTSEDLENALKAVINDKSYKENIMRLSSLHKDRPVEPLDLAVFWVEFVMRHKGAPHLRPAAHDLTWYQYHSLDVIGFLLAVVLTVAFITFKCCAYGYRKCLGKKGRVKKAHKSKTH

Vmax (UGT1A8; UGT1A8, mean ± SE): 683 ± 69 fmol/min/mg protein
n (Hill coefficient) (UGT1A8; UGT1A8, mean ± SE): 1.2 ± 0.1
velocity of AP-G formation (UGT1A8; human, 60 min, 250 µM, pH 7.5): 391 ± 10.6 fmol/min/mg protein
CLint (UGT1A8; human, recombinant enzyme, pH 7.5): 3.5 µl/min/µg protein
inhibition model (UGT2B7; UGT2B7, substrate 4-MU): competitive inhibition model
inhibition model (UGT2B7; UGT2B7, substrate AZT): competitive inhibition model
inhibition model (UGT2B7; UGT2B7, substrate morphine): noncompetitive model
AP-G formation (UGT2B4): not detected
inhibition at 10 µM (UGT1A7): 17%
AP-G formation (UGT1A6): not detected
SMILES: C[C@@H](O[C@H]1OCCN(Cc2n[nH]c(=O)[nH]2)[C@H]1c1ccc(F)cc1)c1cc(C(F)(F)F)cc(C(F)(F)F)c1 [aprepitant, Aprepitant]
